Test results taken from PubChem BioAssay (NCI).
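Exposure lasted 48 hours, with cells grown in 96-well plates and compounds tested at five concentrations. At the GI50, growth is halved. The concentration for full growth arrest is given as TGI.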

Key:
Experiment in all cases: DTP human tumour cell line panel, 48 h
[1] = tested on: MDA-MB-435
[2] = tested on: NCI-H460 lung
[3] = tested on: SK-MEL-5 melanoma
[4] = tested on: MDA-MB-231 breast
[5] = tested on: MDA-MB-468 breast
[6] = tested on: OVCAR-8 ovarian
[7] = tested on: EKVX NSCLC
[8] = tested on: HCT-116 colon
[9] = tested on: HCC-2998 colon
[10] = tested on: LOX IMVI melanoma
[11] = tested on: OVCAR-4 ovarian
[12] = tested on: MOLT-4 leukemia
[13] = tested on: OVCAR-3 ovarian
[14] = tested on: ACHN renal
[15] = tested on: SK-MEL-2 melanoma
[16] = tested on: SN12C renal
[17] = tested on: SF-539 CNS
[18] = tested on: BT-549 breast
[19] = tested on: UO-31 renal
[20] = tested on: DU-145 prostate
[21] = tested on: SNB-75 CNS
[22] = tested on: HOP-62 NSCLC
[23] = tested on: CCRF-CEM leukemia
[24] = tested on: A549 NSCLC
[25] = tested on: KM12 colon
[26] = tested on: SNB-19 CNS
[27] = tested on: UACC-62 melanoma
[28] = tested on: SR leukemia
[29] = tested on: SK-OV-3 ovarian
[30] = tested on: HL-60(TB) leukemia
[31] = tested on: K-562 leukemia
[32] = tested on: TK-10 renal
[33] = tested on: SK-MEL-28 melanoma
[34] = tested on: HCT-15 colon
[35] = tested on: OVCAR-5 ovarian
[36] = tested on: HS 578T breast
[37] = tested on: MALME-3M melanoma
[38] = tested on: SF-295 CNS
[39] = tested on: HOP-92 NSCLC
[40] = tested on: U251 CNS
[41] = tested on: RXF 393 renal
[42] = tested on: 786-0 renal
[43] = tested on: MCF7 breast
[44] = tested on: UACC-257 melanoma
[45] = tested on: PC-3 prostate
[46] = tested on: NCI-H23 lung
[47] = tested on: SW-620 colon
[48] = tested on: CAKI-1 renal
[49] = tested on: COLO 205 colon
[50] = tested on: M14 melanoma
[51] = tested on: SF-268 CNS
[52] = tested on: A498 renal
[53] = tested on: NCI-H226 lung
[54] = tested on: IGROV1 ovarian
[55] = tested on: NCI-H522 lung

In the case of `CC(C)(C)Nc1nc2cc(Cl)c(Cl)cc2nc1S(C)(=O)=O`, the GI50 [1] was 1.88 µM, the TGI [1] was 4.17 µM and the GI50 [2] was 8.46 µM. The TGI [2] was 22.8 µM, the GI50 [3] was 2.18 µM and the TGI [3] was 5.77 µM. It also gave a GI50 [4] of 3.11 µM, a TGI [4] of 8.94 µM and a GI50 [5] of 1.64 µM. For the same compound, the TGI [5] was 3.13 µM, the GI50 [6] was 3.95 µM and the TGI [6] was 19.6 µM. The GI50 [7] was 13.3 µM, the TGI [7] was 27 µM and the GI50 [8] was 1.67 µM. The TGI [8] was 3.44 µM, the GI50 [9] was 8.7 µM and the TGI [9] was 20.9 µM. The GI50 [10] was 1.35 µM, the TGI [10] was 2.72 µM and the GI50 [11] was 2.96 µM. The TGI [11] was 9.57 µM, the GI50 [12] was 0.411 µM and the TGI [12] was 1.97 µM. The GI50 [13] was 1.89 µM, the TGI [13] was 3.52 µM and the GI50 [14] was 1.75 µM. It also gave a TGI [14] of 3.35 µM, a GI50 [15] of 4.14 µM and a TGI [15] of 16.1 µM. For the same compound, the GI50 [16] was 3.74 µM, the TGI [16] was 14.4 µM and the GI50 [17] was 6.38 µM. For the same compound, the TGI [17] was 19.3 µM, the GI50 [18] was 1.74 µM and the TGI [18] was 3.41 µM. It also gave a GI50 [19] of 1.58 µM, a TGI [19] of 2.95 µM and a GI50 [20] of 3.46 µM. For the same compound, the TGI [20] was 12.1 µM, the GI50 [21] was 8.16 µM and the TGI [21] was 24.4 µM. It also gave a GI50 [22] of 14.9 µM, a TGI [22] of 29.2 µM and a GI50 [23] of 0.307 µM. The TGI [23] was 3.77 µM, the GI50 [24] was 13.5 µM and the TGI [24] was 27.6 µM. It also gave a GI50 [25] of 7.82 µM, a TGI [25] of 24.7 µM and a GI50 [26] of 13.8 µM. For the same compound, the TGI [26] was 26.9 µM, the GI50 [27] was 6.98 µM and the TGI [27] was 19.8 µM. For the same compound, the GI50 [28] was 0.504 µM, the TGI [28] was 2.74 µM and the GI50 [29] was 13.3 µM. For the same compound, the TGI [29] was 26.4 µM, the GI50 [30] was 4.03 µM and the TGI [30] was 20.1 µM. The GI50 [31] was 1.05 µM, the TGI [31] was 3.21 µM and the GI50 [32] was 1.7 µM. For the same compound, the TGI [32] was 3.19 µM, the GI50 [33] was 1.79 µM and the TGI [33] was 3.33 µM. The GI50 [34] was 1.53 µM, the TGI [34] was 3.03 µM and the GI50 [35] was 14.6 µM. The TGI [35] was 28.4 µM, the GI50 [36] was 7.29 µM and the TGI [36] was 35.2 µM. For the same compound, the GI50 [37] was 1.64 µM, the TGI [37] was 3.09 µM and the GI50 [38] was 14.6 µM. It also gave a TGI [38] of 28.1 µM, a GI50 [39] of 2 µM and a TGI [39] of 4.88 µM. For the same compound, the GI50 [40] was 11.1 µM, the TGI [40] was 24.5 µM and the GI50 [41] was 1.77 µM. It also gave a TGI [41] of 3.64 µM, a GI50 [42] of 1.84 µM and a TGI [42] of 3.47 µM. For the same compound, the GI50 [43] was 1.9 µM, the TGI [43] was 4.23 µM and the GI50 [44] was 1.99 µM. For the same compound, the TGI [44] was 4.28 µM, the GI50 [45] was 8.63 µM and the TGI [45] was 24.6 µM. For the same compound, the GI50 [46] was 2.09 µM, the TGI [46] was 5.07 µM and the GI50 [47] was 1.48 µM. It also gave a TGI [47] of 2.96 µM, a GI50 [48] of 1.58 µM and a TGI [48] of 3.01 µM. For the same compound, the GI50 [49] was 1.7 µM, the TGI [49] was 3.28 µM and the GI50 [50] was 1.71 µM. For the same compound, the TGI [50] was 3.43 µM, the GI50 [51] was 15.9 µM and the TGI [51] was 36.4 µM. The GI50 [52] was 19.2 µM, the TGI [52] was 33.5 µM and the GI50 [53] was 11.4 µM. For the same compound, the TGI [53] was 41.7 µM, the GI50 [54] was 12.2 µM and the TGI [54] was 25.6 µM. It also gave a GI50 [55] of 1.2 µM and a TGI [55] of 2.63 µM.
